Assay [1] has as its target T1, Alpha-1A adrenergic receptor (Homo sapiens, UniProt P35348).
T1 sequence (P35348 whole entry): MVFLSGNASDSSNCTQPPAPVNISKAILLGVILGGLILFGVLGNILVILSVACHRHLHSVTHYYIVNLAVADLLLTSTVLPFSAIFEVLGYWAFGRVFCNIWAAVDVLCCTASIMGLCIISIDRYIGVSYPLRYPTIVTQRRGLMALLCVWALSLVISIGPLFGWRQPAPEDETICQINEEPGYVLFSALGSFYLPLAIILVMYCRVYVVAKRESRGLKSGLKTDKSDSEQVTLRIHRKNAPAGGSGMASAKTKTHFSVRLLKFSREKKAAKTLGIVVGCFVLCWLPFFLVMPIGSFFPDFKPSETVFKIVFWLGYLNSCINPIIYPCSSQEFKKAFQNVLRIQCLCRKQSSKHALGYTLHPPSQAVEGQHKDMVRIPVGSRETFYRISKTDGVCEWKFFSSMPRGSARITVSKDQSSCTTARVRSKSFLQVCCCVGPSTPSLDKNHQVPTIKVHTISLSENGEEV
The assay is classed as functional, cell-based.

Assay [2] has as its target T2, Alpha-2A adrenergic receptor (Homo sapiens, UniProt P08913).
T2 sequence (P08913 whole entry): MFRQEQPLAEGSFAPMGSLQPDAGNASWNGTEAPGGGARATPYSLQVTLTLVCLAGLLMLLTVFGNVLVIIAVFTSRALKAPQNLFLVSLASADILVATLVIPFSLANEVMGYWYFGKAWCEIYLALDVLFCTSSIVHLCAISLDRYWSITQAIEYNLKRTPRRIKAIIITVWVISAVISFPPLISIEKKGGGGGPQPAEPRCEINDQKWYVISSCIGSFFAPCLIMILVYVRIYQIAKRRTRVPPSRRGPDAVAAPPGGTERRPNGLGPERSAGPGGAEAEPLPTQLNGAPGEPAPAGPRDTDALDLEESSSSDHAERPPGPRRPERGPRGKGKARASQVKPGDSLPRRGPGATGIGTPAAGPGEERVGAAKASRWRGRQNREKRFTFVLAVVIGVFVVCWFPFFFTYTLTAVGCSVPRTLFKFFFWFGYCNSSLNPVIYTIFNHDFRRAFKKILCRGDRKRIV

Assay [3] concerns the target T3, Amine oxidase [flavin-containing] A (Homo sapiens, UniProt P21397).
T3 sequence (P21397 whole entry): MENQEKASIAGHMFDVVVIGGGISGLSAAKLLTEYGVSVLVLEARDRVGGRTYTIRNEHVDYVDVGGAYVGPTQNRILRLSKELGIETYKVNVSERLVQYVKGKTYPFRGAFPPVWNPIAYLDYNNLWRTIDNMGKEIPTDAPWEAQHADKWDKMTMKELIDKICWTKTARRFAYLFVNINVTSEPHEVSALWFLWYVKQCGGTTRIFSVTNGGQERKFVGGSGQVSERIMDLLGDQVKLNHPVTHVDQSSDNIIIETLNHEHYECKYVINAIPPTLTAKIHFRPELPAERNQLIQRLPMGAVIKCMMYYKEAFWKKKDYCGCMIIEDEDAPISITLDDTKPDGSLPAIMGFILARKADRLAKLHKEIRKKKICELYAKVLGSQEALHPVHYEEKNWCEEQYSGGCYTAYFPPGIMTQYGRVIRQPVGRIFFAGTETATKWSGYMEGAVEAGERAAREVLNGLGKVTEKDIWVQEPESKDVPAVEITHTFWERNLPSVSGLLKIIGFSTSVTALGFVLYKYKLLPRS
The format is functional.

For assay [4], the target named is T1, Alpha-1A adrenergic receptor. The format is functional, cell-based. The source holds these as a separate data set.
In a further assay the target is T4, Thromboxane A2 receptor (Homo sapiens, UniProt P21731).
T4 sequence (P21731 whole entry): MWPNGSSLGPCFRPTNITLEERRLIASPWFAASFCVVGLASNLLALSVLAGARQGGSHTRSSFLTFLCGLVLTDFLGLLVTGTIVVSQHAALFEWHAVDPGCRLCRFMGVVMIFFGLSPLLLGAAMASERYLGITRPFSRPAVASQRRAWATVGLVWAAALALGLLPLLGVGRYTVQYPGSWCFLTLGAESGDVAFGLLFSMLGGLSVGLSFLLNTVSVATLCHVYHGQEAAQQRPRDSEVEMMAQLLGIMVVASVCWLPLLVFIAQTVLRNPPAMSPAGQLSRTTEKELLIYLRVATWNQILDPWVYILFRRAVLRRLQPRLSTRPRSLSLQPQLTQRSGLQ
The format is functional, cell-based.

Assay [5] addresses Glutamate receptor ionotropic, NMDA 1 (Rattus norvegicus, UniProt P35439).
For a further assay, the target named is Histamine H2 receptor (Homo sapiens, UniProt P25021). The assay is classed as functional, cell-based.
Histamine H2 receptor, sequence (P25021 whole entry): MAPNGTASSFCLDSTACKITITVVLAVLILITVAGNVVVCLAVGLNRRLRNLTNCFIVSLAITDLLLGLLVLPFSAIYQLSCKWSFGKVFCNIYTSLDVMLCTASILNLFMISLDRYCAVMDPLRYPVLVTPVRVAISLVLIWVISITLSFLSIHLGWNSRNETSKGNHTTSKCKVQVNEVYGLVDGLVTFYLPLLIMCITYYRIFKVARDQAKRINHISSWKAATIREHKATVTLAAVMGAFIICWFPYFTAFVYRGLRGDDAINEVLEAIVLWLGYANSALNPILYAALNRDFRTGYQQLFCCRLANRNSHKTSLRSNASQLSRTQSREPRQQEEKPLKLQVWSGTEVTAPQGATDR
For assay [6], the target named is T5, Neuropeptide Y receptor type 1 (Homo sapiens, UniProt P25929).
T5 sequence (P25929 whole entry): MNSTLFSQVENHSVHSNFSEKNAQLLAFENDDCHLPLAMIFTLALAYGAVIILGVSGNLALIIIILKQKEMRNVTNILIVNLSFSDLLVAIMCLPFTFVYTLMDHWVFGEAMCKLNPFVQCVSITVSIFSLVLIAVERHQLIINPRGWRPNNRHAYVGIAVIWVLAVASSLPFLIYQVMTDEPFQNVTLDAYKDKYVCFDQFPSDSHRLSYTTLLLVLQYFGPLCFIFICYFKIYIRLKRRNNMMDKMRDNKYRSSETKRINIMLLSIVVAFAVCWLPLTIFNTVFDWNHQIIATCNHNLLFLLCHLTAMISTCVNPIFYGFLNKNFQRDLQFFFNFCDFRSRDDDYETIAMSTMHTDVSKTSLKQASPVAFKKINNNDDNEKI

A value given as a limit tells only on which side of the number the result lay.

What is called AC50 is the concentration giving half of the maximal activity seen.
Further: assay procedure not described here.

`CN(C)CCC=C1c2ccccc2C(C)(C)c2ccccc21`: the AC50 in assay [1] was > 30 µM.
Take `COC(c1ccccc1)(c1ccccc1)[C@H](Oc1nc(C)cc(C)n1)C(=O)O` [AMBRISENTAN]: the AC50 (in assay [2]; in assay [3]; in assay [4]; at Thromboxane A2 receptor) was > 30 µM each time.
Turning to `CCc1oc2ccccc2c1C(=O)c1cc(I)c(O)c(I)c1` [BENZIODARONE], the AC50 in assay [2] was 29.9 µM; in assay [3] it was > 30 µM; at Thromboxane A2 receptor, > 1 µM.
Consider `CN(C)CCn1nnnc1SCC1=C(C(=O)O)N2C(=O)[C@@H](NC(=O)Cc3csc(N)n3)[C@H]2SC1` [CEFOTIAM], for which the AC50 (in assay [2]; in assay [3]; in assay [4]; at Thromboxane A2 receptor) was > 30 µM throughout.
With `COCc1c(C(C)C)nc(C(C)C)c(/C=C/[C@@H](O)C[C@@H](O)CC(=O)O)c1-c1ccc(F)cc1` [CERIVASTATIN], the AC50 was > 30 µM in assay [2], > 30 µM in assay [3], > 30 µM in assay [4] and 20.1 µM on Thromboxane A2 receptor.
As for `Oc1c(Cl)cc(Cl)c2cccnc12` [CHLOROXINE], the AC50 (in assay [2]; in assay [3]; in assay [4]; at Thromboxane A2 receptor) was > 30 µM throughout.
Consider `C[N+](C)(C)CCO` [CHOLINE], for which the concentration at half-maximal activity (AC50) (in assay [2]; in assay [3]; in assay [4]; on Thromboxane A2 receptor) was > 30 µM throughout.
As to `CN(C)[C@@H](c1cccc(O)c1)[C@H]1CCCC[C@H]1O` [CIRAMADOL], the AC50 (in assay [2]; in assay [3]; in assay [4]; at Thromboxane A2 receptor) was > 30 µM throughout.
As for `CN(C)CC(c1ccc(O)cc1)C1(O)CCCCC1` (configuration not stated) [DESVENLAFAXINE], the AC50 (in assay [2]; in assay [3]; in assay [4]; on Thromboxane A2 receptor) was > 30 µM each time.
In the case of `CN(C)CCN1C(=O)c2ccccc2N(C)c2ccccc21` [DIBENZEPIN], the half-maximal activity concentration (AC50) in assay [2] was 9.47 µM; in assay [3], > 30 µM; in assay [4], 22.5 µM; at Thromboxane A2 receptor, > 30 µM.
Turning to `N[C@H](C(=O)O)[C@H](O)c1ccc(O)c(O)c1` [DROXIDOPA], the concentration at half-maximal activity (AC50) was > 30 µM in assay [2], > 30 µM in assay [3], 10.4 µM in assay [4] and > 30 µM on Thromboxane A2 receptor.
Regarding `C[C@]12CC[C@@H]3c4ccc(O)cc4CC[C@H]3[C@@H]1C[C@@H](O)[C@@H]2O` [ESTRIOL], the AC50 (in assay [2]; in assay [3]; in assay [4]; at Thromboxane A2 receptor) was > 30 µM throughout.
As for `Cc1cc(C#N)cc(C)c1Oc1nc(Nc2ccc(C#N)cc2)nc(N)c1Br` [ETRAVIRINE], the half-maximal activity concentration (AC50) in assay [2] was 20 µM; in assay [3], > 30 µM; in assay [4] it was > 10 µM; on Thromboxane A2 receptor, > 3 µM.
On to `O=C(O)c1cc(O)ccc1O` [GENTISIC ACID], for which the AC50 (in assay [2]; in assay [3]; in assay [4]; at Thromboxane A2 receptor) was > 30 µM in each case.
`CCC1=C(C)CN(C(=O)NCCc2ccc(S(=O)(=O)NC(=O)N[C@H]3CC[C@H](C)CC3)cc2)C1=O` [GLIMEPIRIDE]: the AC50 in assay [2] was > 30 µM; in assay [3], > 30 µM; in assay [4], > 30 µM; at Thromboxane A2 receptor it was 18.5 µM.
In the case of `CC(C)Nc1ncccn1` [ISAXONINE], the concentration at half-maximal activity (AC50) (in assay [2]; in assay [3]; in assay [4]; on Thromboxane A2 receptor) was > 30 µM in each case.
Consider `c1ccc([C@H]2CN3CCSC3=N2)cc1` [LEVAMISOLE], for which the concentration at half-maximal activity (AC50) (in assay [5]; in assay [1]; at Histamine H2 receptor) was > 30 µM throughout.
On to `N[C@@H](C(=O)N[C@@H]1C(=O)N2C(C(=O)O)=C(Cl)CC[C@H]12)c1ccccc1` [LORACARBEF ANHYDROUS], for which the half-maximal activity concentration (AC50) (in assay [2]; in assay [3]; in assay [4]; at Thromboxane A2 receptor) was > 30 µM each time.
Take `C[C@H]1CNCCc2ccc(Cl)cc21` [LORCASERIN]: the AC50 in assay [1] was > 30 µM.
`OCCN1C[C@H](O)[C@@H](O)[C@H](O)[C@H]1CO` [MIGLITOL]: the AC50 (in assay [2]; in assay [3]; in assay [4]; on Thromboxane A2 receptor) was > 30 µM each time.
Turning to `CC(=O)N[C@@H]1[C@@H](O)[C@H](O)[C@@H](CO)O[C@H]1O` [N-ACETYLGLUCOSAMINE], the concentration at half-maximal activity (AC50) (in assay [2]; in assay [3]; in assay [4]; on Thromboxane A2 receptor) was > 30 µM in each case.
With `O=C(CCNNC(=O)c1ccncc1)NCc1ccccc1` [NIALAMIDE], the half-maximal activity concentration (AC50) (in assay [2]; in assay [3]; in assay [4]; on Thromboxane A2 receptor) was > 30 µM each time.
As for `CC[N+]1(C)[C@@H]2CC(OC(=O)[C@H](CO)c3ccccc3)C[C@H]1[C@@H]1O[C@@H]12` (some centres not stated) [OXITROPIUM], the AC50 (in assay [2]; in assay [3]; in assay [4]; at Thromboxane A2 receptor) was > 30 µM each time.
Take `CC(C)(C)NC[C@H](O)COc1ccccc1C1CCCC1` [PENBUTOLOL]: the AC50 in assay [2] was 0.966 µM; in assay [3], > 30 µM; in assay [4], > 30 µM; at Thromboxane A2 receptor, 16.1 µM.
In the case of `CC(C)(S)[C@@H](N)C(=O)O` [PENICILLAMINE], the AC50 (in assay [2]; in assay [3]; in assay [4]; at Thromboxane A2 receptor) was > 30 µM throughout.
As to `C1CCC(C(CC2CCCCN2)C2CCCCC2)CC1` (configuration not stated) [PERHEXILINE], the AC50 in assay [1] was > 10 µM.
Regarding `COc1cc(NC(C)CCCN)c2ncccc2c1` (configuration not stated) [PRIMAQUINE], the half-maximal activity concentration (AC50) (in assay [6]; at Thromboxane A2 receptor) was > 30 µM in each case.
`C=C[C@H]1C[N@@]2CC[C@H]1C[C@H]2[C@H](O)c1ccnc2ccc(OC)cc12` [QUININE]: the AC50 in assay [2] was 5.45 µM; in assay [3], > 30 µM; at Thromboxane A2 receptor, > 30 µM.
Regarding `N[C@@H]1[C@H]2CN(c3nc4c(cc3F)c(=O)c(C(=O)O)cn4-c3ccc(F)cc3F)C[C@@H]12` [TROVAFLOXACIN], in assay [1], the concentration at half-maximal activity (AC50) was > 30 µM.
Turning to `CCCCCCOc1nsnc1C1=CCCN(C)C1` [XANOMELINE], the AC50 is 1.39 µM in assay [2], 13.2 µM in assay [4] and > 30 µM at Thromboxane A2 receptor.

Source of the values: ChEMBL document CHEMBL5291721, “A preclinical secondary pharmacology resource illuminates target-adverse drug reaction associations of marketed drugs” (Nat Commun, 2023).
